In patent publication US10426850B2, “Collagen mimetic peptides for targeting collagen strands for in vitro and in vivo imaging and therapeutic use” (The Johns Hopkins University, priority 2011, dated 2019):
“Also recorded” adds a separate entry of the source.

What was measured:
[1] = biological target: T1, MMP-1 digested type I collagen (Rattus norvegicus, UniProt P02454+P02466); assay: Staining of SDS-PAGE gels using photo-decaged CMP; format: binding; conditions: 6 μM, UV-activation
T1 construct: purchased BD Science (collagen); EMD Millipore (ProMMP-1); host or cells: rat tail; digested in house
T1 sequence (P02454 152-942 limits assumed): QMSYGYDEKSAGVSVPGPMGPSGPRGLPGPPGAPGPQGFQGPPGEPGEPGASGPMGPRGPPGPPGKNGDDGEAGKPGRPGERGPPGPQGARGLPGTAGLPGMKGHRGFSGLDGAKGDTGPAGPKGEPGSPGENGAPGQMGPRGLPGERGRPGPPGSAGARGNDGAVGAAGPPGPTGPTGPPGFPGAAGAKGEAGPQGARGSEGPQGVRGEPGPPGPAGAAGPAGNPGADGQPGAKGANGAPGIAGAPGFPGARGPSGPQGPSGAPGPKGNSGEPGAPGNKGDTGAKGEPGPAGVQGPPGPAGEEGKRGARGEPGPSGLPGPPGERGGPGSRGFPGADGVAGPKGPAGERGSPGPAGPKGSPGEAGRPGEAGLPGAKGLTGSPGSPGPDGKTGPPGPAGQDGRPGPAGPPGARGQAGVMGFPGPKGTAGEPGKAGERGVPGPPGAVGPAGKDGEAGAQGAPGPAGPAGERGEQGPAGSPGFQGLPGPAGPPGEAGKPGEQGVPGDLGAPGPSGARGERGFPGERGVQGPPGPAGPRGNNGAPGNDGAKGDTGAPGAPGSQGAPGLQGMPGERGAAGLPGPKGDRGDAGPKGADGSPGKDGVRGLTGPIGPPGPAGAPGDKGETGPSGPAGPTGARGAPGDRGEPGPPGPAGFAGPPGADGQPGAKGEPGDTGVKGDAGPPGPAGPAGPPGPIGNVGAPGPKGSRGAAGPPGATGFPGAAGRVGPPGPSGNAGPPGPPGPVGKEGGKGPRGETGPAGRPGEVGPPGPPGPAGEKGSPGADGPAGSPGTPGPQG
T1 sequence (P02454 943-1207 limits assumed): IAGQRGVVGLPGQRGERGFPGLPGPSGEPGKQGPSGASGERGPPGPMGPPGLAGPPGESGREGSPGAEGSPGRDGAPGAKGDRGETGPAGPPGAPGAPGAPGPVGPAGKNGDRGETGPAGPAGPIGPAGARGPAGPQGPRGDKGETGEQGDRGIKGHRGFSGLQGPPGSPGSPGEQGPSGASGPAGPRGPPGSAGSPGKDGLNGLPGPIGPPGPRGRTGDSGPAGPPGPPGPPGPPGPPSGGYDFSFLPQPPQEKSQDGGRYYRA
T1 sequence (P02466 86-871 limits assumed): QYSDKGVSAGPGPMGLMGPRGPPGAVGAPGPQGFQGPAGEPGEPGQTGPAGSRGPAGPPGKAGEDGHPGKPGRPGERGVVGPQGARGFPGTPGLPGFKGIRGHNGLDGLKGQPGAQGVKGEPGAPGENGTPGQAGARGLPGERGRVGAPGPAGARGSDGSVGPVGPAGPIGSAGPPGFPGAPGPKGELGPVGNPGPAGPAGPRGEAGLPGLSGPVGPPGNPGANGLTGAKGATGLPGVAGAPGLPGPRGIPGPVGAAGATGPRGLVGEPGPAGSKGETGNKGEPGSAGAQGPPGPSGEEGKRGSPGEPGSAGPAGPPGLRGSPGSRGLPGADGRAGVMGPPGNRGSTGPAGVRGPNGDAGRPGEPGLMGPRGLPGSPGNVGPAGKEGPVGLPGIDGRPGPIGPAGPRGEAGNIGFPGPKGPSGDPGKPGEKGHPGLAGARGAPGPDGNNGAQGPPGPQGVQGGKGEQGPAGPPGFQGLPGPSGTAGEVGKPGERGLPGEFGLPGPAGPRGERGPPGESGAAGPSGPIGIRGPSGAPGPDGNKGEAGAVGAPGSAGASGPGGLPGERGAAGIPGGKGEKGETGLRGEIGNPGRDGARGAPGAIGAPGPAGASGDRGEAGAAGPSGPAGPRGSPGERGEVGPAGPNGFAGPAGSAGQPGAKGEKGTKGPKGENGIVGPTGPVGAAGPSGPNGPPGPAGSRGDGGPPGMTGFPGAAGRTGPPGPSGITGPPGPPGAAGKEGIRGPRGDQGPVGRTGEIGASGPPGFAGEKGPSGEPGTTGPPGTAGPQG
T1 sequence (P02466 872-1125 limits assumed): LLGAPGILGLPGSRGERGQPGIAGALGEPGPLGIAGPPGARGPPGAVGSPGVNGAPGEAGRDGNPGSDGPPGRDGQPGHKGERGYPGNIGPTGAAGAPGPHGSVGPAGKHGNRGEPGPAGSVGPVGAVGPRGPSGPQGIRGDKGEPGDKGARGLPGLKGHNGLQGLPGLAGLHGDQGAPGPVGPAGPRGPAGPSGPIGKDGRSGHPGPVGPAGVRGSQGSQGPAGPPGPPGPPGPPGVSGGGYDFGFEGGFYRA
Protocol: Staining of SDS-PAGE gels using photo-decaged CF(GPO)9 (SEQ ID NO: 10). MMP-1 digested type I collagen (3.5 μg) was separated by SDS-PAGE (4-12% polyacrylamide gel) under non-reducing condition, along with unstained protein ladder (Life technologies, LC5801). After washing, the gel was soaked in 6 μM CF^NB(GPO)9 (SEQ ID NO: 4) (or CF^SG9P9O9 (SEQ ID NO: 5)) in 1×PBS solution, followed by exposure to 365 nm UV light for 15 min, and 2.5 hr of staining. The gel was washed with deionized water and scanned using Typhoon 9410 Imager (GE Healthcare) with 488 nm fluorescence channel. Afterwards, the protein gel was stained by coomassie brilliant blue and imaged by Gel Doc EQ system (BioRad).

[2] = tested on: streptococcal collagen-like protein Scl2.28CL; assay: SDS-PAGE staining of collagen-like protein Scl2.28CL; format: binding, Streptococcus pyogenes; conditions: 6 μM, heat activated, 2.5 μg, gel fixed with glutaraldehyde
Protocol: To prepare MMP-1 cleaved collagen chain fragments, proMMP-1 (1 μg) was activated by p-aminophenylmercuric acetate (1.1 mM) in 132.5 μL of TNC buffer (50 mM Tris-HCl, 0.15 M NaCl, 5 mM CaCl2, 0.02% NaN3, pH 7.5) at 37° C. for 3 hr, after which type I collagen (62.6 μg) was added to the activated MMP-1 solution and incubated at room temperature for at least 3 days. To obtain the cell lysate, confluent HUVECs cultured in EGM-2 media at 37° C. were lysed with lysis buffer (25 mM Tris-HCl, 0.5% Triton X-100, 200 mM NaCl, 2 mM EDTA, phosphatase and protease inhibitors; Roche Applied Science). The lysate solution was spun at 15,000 g for 15 min and the supernatant was collected. The recombinant streptococcal collagen-like protein Scl2.28CL was expressed and characterized following the methods introduced by Mohs et al. (J. Biol. Chem. 282, 29757-29765 (2007)).
(§1) SDS-PAGE staining and imaging. Proteins were resolved on NuPAGE® Novex 4-12% bis-tris gels under denaturating conditions using an XCell SureLock™ Mini-Cell electrophoresis system (Life Technologies). […] The fluorescence intensities of the protein bands were quantified using GE ImageQuant™ TL software. After fluorescence imaging, all gels were further stained with coomassie brilliant blue (CB) G-250 (Bio-Rad) for 2-3 hr followed by washing, and imaging under white light illumination using a Gel Doc EQ system (BioRad).

[3] = biological target: T2, complement factor C1q (Homo sapiens, UniProt P02745+P02746+P02747); assay: SDS-PAGE staining of collagen-like protein C1q; format: binding; conditions: 6 μM, heat activated, 2 μg
T2 construct: Complement component C1q from human serum; purchased Sigma-Aldrich; host or cells: human serum
T2 sequence (P02745 23-245): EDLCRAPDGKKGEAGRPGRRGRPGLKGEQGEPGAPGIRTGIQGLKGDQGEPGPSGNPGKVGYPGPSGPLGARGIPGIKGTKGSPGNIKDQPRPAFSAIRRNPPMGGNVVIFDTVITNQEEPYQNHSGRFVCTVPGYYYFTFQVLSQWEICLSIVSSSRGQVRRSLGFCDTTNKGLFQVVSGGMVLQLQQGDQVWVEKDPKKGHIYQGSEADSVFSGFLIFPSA
T2 sequence (P02746 28-253): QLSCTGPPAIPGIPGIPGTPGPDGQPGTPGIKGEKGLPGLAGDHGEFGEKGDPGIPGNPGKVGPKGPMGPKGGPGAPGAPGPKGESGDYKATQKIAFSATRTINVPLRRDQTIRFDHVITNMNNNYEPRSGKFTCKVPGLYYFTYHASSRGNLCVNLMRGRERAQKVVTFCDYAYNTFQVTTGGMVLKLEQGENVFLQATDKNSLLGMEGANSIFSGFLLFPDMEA
T2 sequence (P02747 29-245): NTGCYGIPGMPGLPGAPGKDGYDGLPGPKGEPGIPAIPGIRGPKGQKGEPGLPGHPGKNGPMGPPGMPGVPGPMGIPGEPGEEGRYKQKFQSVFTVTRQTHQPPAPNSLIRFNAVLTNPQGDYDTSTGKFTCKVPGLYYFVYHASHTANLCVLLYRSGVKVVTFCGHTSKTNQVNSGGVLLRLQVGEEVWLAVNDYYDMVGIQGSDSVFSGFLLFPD
Excerpt: Acid soluble rat-tail type I collagen, bovine type II collagen, and mouse type IV collagen were purchased from BD Bioscience (San Jose, Calif.). Complement component C1q from human serum, fibronectin from bovine plasma, and laminin from Engelbreth-Holm-Swarm murine sarcoma basement membrane were purchased from Sigma-Aldrich. ProMMP-1, and p-aminophenylmercuric acetate were acquired from EMD millipore. Human umbilical vein endothelial cells (HUVECs) and EGM-2 cell growth media were obtained from Lonza (Walkersville, Md.). Precast NuPAGE® Novex 4-12% Bis-Tris Gel (1.0 mm, 12 well), Novex® Sharp unstained protein standard, and SDS-PAGE running buffer, sample buffer, and other SDS-PAGE reagents were purchased from Life Technologies.
as §1, with “Technologies). NuPAGE® MOPS SDS running buffer containing 50 mM MOPS, 50 mM Tris Base, 0.1% SDS, and 1 mM EDTA (pH 7.7) was used.” for “Technologies).”

Substance	staining of MMP-1 digested collagen bands [1]	staining of protein ladder bands [1]	staining of Scl2.28CL bands [2]	staining of C1q chains [3]
CF-GGG-(GPO)4^NBGPO(GPO)4 [CF^NB(GPO)9]	able to stain the MMP-1 digested collagen bands	No other bands from the protein ladder were stained		
CF-GGG-(GPO)9 [CF(GPO)9]			failed to stain; also recorded: almost no staining of the Scl2.28CL band	almost as effectively as collagens
